What all share (test): cell-based
In assay [1] the target is T1, hNav1.7 (Homo sapiens, UniProt Q15858). The following applies: IonWorks Quattro; read-out: IC50 Nav1.7.
Assay [2] concerns the target T2, hNav1.5 (Homo sapiens, UniProt Q14524). Particulars: IonWorks Quattro; read-out: IC50 Nav1.5. In general terms: The patch-clamp technique gives a direct electrical read-out from membranes.
Assay [3] has as its target T3, hNav1.4 (Homo sapiens, UniProt P35499). The following applies: for IC50: IonWorks Quattro, read-out: IC50 Nav1.4; for Nav1.4/Nav1.7: ratio of IonWorks Quattro IC50 values.
The target of assay [4] is hNav1.3 (Homo sapiens, UniProt Q9NY46). Particulars: IonWorks Quattro; read-out: IC50 Nav1.3.
Assay [5] concerns the target T1, hNav1.7. It is filed as cell-based. Particulars: PatchXpress; * = at high concentrations compound would wash off slowly or not at all; read-out: PX hNav1.7 Tonic IC50.
The target of assay [6] is T3, hNav1.4. Particulars: for IC50: PatchXpress, * = at high concentrations compound would wash off slowly or not at all, read-out: PX hNav1.4 Tonic IC50.
The target in assay [7] is T2, hNav1.5. Particulars: for IC50: PatchXpress, * = at high concentrations compound would wash off slowly or not at all, read-out: PX hNav1.5 Tonic IC50.

In general, IC50 refers to the concentration that inhibits the measured activity by half.

Values joined by “and” are separate entries in the source; they are usually repeats but may differ in a detail not shown here. Equal entries are not always repeated. Where two headings read alike, the source gives them in different places.

T3 sequence (P35499 whole entry): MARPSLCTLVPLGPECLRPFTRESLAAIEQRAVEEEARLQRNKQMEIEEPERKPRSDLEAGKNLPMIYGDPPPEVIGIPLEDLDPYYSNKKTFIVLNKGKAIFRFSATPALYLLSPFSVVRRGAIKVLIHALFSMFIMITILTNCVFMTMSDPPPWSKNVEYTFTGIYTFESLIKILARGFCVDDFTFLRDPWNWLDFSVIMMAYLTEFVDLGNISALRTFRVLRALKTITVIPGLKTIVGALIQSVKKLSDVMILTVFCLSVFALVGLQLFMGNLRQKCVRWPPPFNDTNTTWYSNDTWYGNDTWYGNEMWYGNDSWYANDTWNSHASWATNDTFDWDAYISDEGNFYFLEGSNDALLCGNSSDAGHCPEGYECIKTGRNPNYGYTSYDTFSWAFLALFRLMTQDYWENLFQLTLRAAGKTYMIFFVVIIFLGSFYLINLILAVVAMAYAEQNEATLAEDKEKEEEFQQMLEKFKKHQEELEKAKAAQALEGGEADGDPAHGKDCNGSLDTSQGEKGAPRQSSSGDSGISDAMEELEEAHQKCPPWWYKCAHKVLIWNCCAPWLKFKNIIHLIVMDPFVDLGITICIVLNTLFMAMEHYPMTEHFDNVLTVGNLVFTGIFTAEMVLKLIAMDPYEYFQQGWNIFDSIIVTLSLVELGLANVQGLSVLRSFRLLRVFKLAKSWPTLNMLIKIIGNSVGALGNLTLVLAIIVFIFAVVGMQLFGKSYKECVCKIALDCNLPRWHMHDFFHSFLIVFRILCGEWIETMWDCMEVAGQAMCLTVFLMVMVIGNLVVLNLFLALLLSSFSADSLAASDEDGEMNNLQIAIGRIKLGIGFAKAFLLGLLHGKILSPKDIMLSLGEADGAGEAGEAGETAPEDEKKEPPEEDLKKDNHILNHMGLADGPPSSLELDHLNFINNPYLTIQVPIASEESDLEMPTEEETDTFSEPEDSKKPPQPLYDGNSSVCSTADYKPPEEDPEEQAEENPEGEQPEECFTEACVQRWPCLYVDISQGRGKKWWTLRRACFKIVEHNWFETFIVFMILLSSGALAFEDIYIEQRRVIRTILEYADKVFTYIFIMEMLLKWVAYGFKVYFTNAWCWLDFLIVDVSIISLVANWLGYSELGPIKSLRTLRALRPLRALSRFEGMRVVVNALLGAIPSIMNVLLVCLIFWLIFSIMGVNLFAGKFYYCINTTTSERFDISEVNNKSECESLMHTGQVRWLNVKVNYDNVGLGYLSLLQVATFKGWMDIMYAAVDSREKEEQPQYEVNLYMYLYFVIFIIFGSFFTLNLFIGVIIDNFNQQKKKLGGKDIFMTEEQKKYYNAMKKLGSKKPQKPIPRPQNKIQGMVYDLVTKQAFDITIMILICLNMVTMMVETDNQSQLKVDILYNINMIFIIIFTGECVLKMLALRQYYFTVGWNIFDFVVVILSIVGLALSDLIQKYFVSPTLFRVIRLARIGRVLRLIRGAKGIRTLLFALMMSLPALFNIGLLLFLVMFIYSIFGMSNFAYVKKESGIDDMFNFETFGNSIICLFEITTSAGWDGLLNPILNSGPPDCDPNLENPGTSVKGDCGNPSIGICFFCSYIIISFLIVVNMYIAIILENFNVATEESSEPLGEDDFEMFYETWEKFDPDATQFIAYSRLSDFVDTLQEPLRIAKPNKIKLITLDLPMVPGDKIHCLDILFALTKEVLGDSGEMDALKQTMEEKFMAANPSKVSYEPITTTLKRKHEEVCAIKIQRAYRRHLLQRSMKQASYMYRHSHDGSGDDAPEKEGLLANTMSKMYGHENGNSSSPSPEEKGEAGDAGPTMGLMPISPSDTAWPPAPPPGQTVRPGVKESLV
T2 sequence (Q14524 whole entry): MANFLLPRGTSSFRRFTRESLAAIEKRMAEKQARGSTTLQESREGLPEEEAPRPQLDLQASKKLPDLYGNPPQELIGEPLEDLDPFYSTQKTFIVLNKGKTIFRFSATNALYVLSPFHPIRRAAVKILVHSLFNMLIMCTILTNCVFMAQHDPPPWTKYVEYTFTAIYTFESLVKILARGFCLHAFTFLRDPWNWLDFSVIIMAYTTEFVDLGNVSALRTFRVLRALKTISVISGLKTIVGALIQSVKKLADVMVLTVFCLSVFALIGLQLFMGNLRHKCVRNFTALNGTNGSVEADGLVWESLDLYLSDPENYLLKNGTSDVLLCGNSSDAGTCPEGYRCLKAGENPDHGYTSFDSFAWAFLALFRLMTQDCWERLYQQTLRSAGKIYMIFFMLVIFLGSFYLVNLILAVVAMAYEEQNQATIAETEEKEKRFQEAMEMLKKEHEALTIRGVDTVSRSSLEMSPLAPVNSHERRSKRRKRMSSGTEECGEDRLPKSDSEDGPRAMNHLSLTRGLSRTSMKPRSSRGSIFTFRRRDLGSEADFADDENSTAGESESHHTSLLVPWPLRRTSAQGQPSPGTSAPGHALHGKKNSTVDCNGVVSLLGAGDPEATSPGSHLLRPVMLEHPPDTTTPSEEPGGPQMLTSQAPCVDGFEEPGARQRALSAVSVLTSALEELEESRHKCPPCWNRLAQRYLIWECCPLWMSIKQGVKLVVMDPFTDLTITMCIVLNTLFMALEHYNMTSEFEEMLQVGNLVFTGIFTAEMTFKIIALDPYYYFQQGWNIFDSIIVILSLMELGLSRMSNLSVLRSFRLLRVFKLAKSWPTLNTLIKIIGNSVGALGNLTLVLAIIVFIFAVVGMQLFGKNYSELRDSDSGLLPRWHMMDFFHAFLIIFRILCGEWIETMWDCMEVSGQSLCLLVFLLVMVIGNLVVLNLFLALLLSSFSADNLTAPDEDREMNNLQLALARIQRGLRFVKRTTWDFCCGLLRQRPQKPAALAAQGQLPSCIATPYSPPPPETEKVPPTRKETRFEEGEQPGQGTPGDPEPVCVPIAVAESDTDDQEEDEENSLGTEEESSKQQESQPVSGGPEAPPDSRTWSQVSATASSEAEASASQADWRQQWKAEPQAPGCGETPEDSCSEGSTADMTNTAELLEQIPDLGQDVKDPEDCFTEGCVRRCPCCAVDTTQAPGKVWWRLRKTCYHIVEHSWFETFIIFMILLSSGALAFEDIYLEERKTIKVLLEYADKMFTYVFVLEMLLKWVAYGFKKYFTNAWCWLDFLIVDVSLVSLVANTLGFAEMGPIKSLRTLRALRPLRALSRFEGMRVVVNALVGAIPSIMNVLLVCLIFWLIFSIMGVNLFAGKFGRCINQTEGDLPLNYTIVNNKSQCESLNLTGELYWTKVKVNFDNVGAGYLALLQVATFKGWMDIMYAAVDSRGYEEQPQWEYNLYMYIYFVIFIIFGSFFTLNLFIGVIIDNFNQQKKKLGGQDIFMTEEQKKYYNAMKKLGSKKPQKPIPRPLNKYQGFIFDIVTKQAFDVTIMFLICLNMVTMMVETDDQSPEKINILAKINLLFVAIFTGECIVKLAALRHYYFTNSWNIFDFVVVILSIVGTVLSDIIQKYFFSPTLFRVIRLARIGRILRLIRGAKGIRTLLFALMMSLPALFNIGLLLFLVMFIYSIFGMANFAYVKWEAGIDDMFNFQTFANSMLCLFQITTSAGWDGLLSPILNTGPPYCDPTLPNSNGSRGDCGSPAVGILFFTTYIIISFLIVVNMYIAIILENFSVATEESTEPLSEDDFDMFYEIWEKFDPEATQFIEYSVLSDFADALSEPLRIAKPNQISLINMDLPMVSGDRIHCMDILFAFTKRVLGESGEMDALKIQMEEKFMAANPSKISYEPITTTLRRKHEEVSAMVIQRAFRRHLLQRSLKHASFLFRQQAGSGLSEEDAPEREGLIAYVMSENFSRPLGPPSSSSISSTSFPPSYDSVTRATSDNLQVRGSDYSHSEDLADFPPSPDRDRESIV

Regarding `CC[C@H](C)[C@H](NC(=O)[C@H](Cc1ccc(O)cc1)NC(=O)[C@H](CCCCN)NC(=O)[C@H](CCCNC(=N)N)NC(=O)[C@@H]1CSSC[C@@H]2NC(=O)[C@H](C)NC(=O)[C@H](CCCNC(=N)N)NC(=O)[C@H](CCCCN)NC(=O)[C@H](CO)NC(=O)[C@H](CC(=O)O)NC(=O)[C@@H]3CSSC[C@H](NC(=O)[C@H](CCC(=O)O)NC(=O)[C@H](CC(C)C)NC(=O)CNC(=O)[C@H](CCC(=O)O)NC(=O)[C@H](CSSC[C@H](NC(=O)[C@@H](N)Cc4ccc(O)cc4)C(=O)N[C@@H](CCC(N)=O)C(=O)N[C@@H](CCCCN)C(=O)N[C@@H](Cc4ccc(I)cc4)C(=O)N[C@@H](CCSC)C(=O)N[C@@H](Cc4c[nH]c5ccccc45)C(=O)N[C@@H]([C@@H](C)O)C(=O)N3)NC2=O)C(=O)N[C@@H](CCCCN)C(=O)N[C@@H](CC(C)C)C(=O)N[C@@H](Cc2c[nH]c3ccccc23)C(=O)N1)C(N)=O` [compound 192], the IC50 is 0.11 µM in assay [1]; greater than 5 µM in assay [2]; 3.4 µM in assay [3]; 1.3 µM in assay [4]; 0.0022 µM in assay [5]; 0.172 µM in assay [6]. Besides, in assay [7], the IC50 is greater than 1 µM. Further, the Nav1.4/Nav1.7 in assay [3] is given as 30; in assay [6] (ratio of PX IC50 values), 78.
Regarding `CC[C@H](C)[C@H](NC(=O)[C@H](Cc1ccc(O)cc1)NC(=O)[C@H](CCCCN)NC(=O)[C@H](CCCNC(=N)N)NC(=O)[C@@H]1CSSC[C@@H]2NC(=O)[C@H](C)NC(=O)[C@H](CCCNC(=N)N)NC(=O)[C@H](CCCCN)NC(=O)[C@H](CO)NC(=O)[C@H](CC(=O)O)NC(=O)[C@@H]3CSSC[C@H](NC(=O)[C@H](CCC(=O)O)NC(=O)[C@H](CC(C)C)NC(=O)CNC(=O)[C@H](CCC(=O)O)NC(=O)[C@H](CSSC[C@H](NC(=O)[C@@H](N)Cc4ccc(O)cc4)C(=O)N[C@@H](CCC(N)=O)C(=O)N[C@@H](CCCCN)C(=O)N[C@@H](Cc4ccccc4)C(=O)N[C@@H](CCSC)C(=O)N[C@@H](Cc4c[nH]c5ccccc45)C(=O)N[C@@H]([C@@H](C)O)C(=O)N3)NC2=O)C(=O)N[C@@H](CCCCN)C(=O)N[C@@H](CC(C)C)C(=O)N[C@@H](Cc2c[nH]c3ccccc23)C(=O)N1)C(N)=O` [compound 193], the IC50 in assay [1] was 0.16 µM and 0.23 µM; in assay [2], greater than 5 µM; in assay [3] it was greater than 5 µM; in assay [4], greater than 5 µM; in assay [5], 0.0046 µM; in assay [6], 1 µM. Also, the IC50 in assay [7] is greater than 1 µM.
Turning to `CC[C@H](C)[C@H](NC(=O)[C@H](Cc1ccc(O)cc1)NC(=O)[C@H](CCCCN)NC(=O)[C@H](CCCNC(=N)N)NC(=O)[C@@H]1CSSC[C@@H]2NC(=O)[C@H](C)NC(=O)[C@H](CCCNC(=N)N)NC(=O)[C@H](CCCCN)NC(=O)[C@H](CO)NC(=O)[C@H](CC(=O)O)NC(=O)[C@@H]3CSSC[C@H](NC(=O)[C@H](CCC(=O)O)NC(=O)[C@H](CC(C)C)NC(=O)CNC(=O)[C@H](CCC(=O)O)NC(=O)[C@H](CSSC[C@H](NC(=O)[C@@H](N)Cc4ccc(O)cc4)C(=O)N[C@@H](CCC(N)=O)C(=O)N[C@@H](CCCCN)C(=O)N[C@@H](Cc4c[nH]c5ccccc45)C(=O)N[C@@H](CCSC)C(=O)N[C@@H](Cc4c[nH]c5ccccc45)C(=O)N[C@@H]([C@@H](C)O)C(=O)N3)NC2=O)C(=O)N[C@@H](CCCCN)C(=O)N[C@@H](CC(C)C)C(=O)N[C@@H](Cc2cccc3ccccc23)C(=O)N1)C(N)=O` [compound 218], the IC50 was 0.3 µM in assay [1]; greater than 7 µM in assay [2]; greater than 7 µM in assay [3]; greater than 7 µM in assay [4]; 0.012 µM in assay [5]; 5.21 µM in assay [6]. Moreover, the IC50 in assay [7] came out at 10 µM.
Regarding `CSCC[C@@H]1NC(=O)[C@H](Cc2c[nH]c3ccccc23)NC(=O)[C@H](CCCCN)NC(=O)[C@H](CCC(N)=O)NC(=O)[C@@H](NC(=O)[C@@H](N)Cc2ccc(O)cc2)CSSC[C@@H]2NC(=O)[C@@H]3CSSC[C@@H](C(=O)N[C@@H](CCCNC(=N)N)C(=O)N[C@@H](CCCCN)C(=O)N[C@@H](Cc4ccc(O)cc4)C(=O)N[C@@H](Cc4cccc5ccccc45)C(N)=O)NC(=O)[C@H](Cc4c[nH]c5ccccc45)NC(=O)[C@H](CC(C)C)NC(=O)[C@H](CCCCN)NC(=O)[C@H](CSSC[C@H](NC(=O)[C@H]([C@@H](C)O)NC(=O)[C@H](Cc4c[nH]c5ccccc45)NC1=O)C(=O)N[C@@H](CC(=O)O)C(=O)N[C@@H](CO)C(=O)N[C@@H](CCCCN)C(=O)N[C@@H](CCCNC(=N)N)C(=O)N[C@@H](C)C(=O)N3)NC(=O)[C@H](CCC(=O)O)NC(=O)[C@H](CC(C)C)NC(=O)CNC(=O)[C@H](CCC(=O)O)NC2=O` [compound 232], the IC50 in assay [1] stood at 0.05 µM; in assay [2] it was 4.6 µM; in assay [3], 4.6 µM; in assay [4] it was 2.1 µM; in assay [5], 0.0045 µM; in assay [6], 1.67 µM. For the same compound, the IC50 in assay [7] was found to be 2.16 µM. For the same compound, the Nav1.4/Nav1.7 in assay [3] came to 91. In addition, in assay [7] (ratio of PX IC50 values), the Nav1.5/Nav1.7 came to 480.
As for `CSCC[C@@H]1NC(=O)[C@H](Cc2c[nH]c3ccccc23)NC(=O)[C@H](CCCCN)NC(=O)[C@H](CCC(N)=O)NC(=O)[C@@H](NC(=O)[C@@H](N)Cc2ccc(O)cc2)CSSC[C@@H]2NC(=O)[C@@H]3CSSC[C@@H](C(=O)N[C@@H](CCCNC(=N)N)C(=O)N[C@@H](CCCCN)C(=O)N[C@@H](Cc4ccc(O)cc4)C(=O)N[C@@H](Cc4ccc5ccccc5c4)C(N)=O)NC(=O)[C@H](Cc4c[nH]c5ccccc45)NC(=O)[C@H](CC(C)C)NC(=O)[C@H](CCCCN)NC(=O)[C@H](CSSC[C@H](NC(=O)[C@H]([C@@H](C)O)NC(=O)[C@H](Cc4c[nH]c5ccccc45)NC1=O)C(=O)N[C@@H](CC(=O)O)C(=O)N[C@@H](CO)C(=O)N[C@@H](CCCCN)C(=O)N[C@@H](CCCNC(=N)N)C(=O)N[C@@H](C)C(=O)N3)NC(=O)[C@H](CCC(=O)O)NC(=O)[C@H](CC(C)C)NC(=O)CNC(=O)[C@H](CCC(=O)O)NC2=O` [compound 233], the IC50 is 0.044 µM in assay [1]; greater than 5 µM in assay [2]; greater than 5 µM in assay [3]; 2.2 µM in assay [4]; 0.0046 µM in assay [5]; 1.22 µM in assay [6]. Also, the IC50 in assay [7] stood at 1.99 µM.
On to `CSCC[C@@H]1NC(=O)[C@H](Cc2c[nH]c3ccccc23)NC(=O)[C@H](CCCCN)NC(=O)[C@H](CCC(N)=O)NC(=O)[C@@H](NC(=O)[C@@H](N)Cc2ccc(O)cc2)CSSC[C@@H]2NC(=O)[C@@H]3CSSC[C@@H](C(=O)N[C@@H](CCCNC(=N)N)C(=O)N[C@@H](CCCCN)C(=O)N[C@@H](Cc4ccc(O)cc4)C(=O)N[C@@H](CC(C)C)C(N)=O)NC(=O)[C@H](Cc4c[nH]c5ccccc45)NC(=O)[C@H](CC(C)C)NC(=O)[C@H](CCCCN)NC(=O)[C@H](CSSC[C@H](NC(=O)[C@H]([C@@H](C)O)NC(=O)[C@H](Cc4c[nH]c5ccccc45)NC1=O)C(=O)N[C@@H](CC(=O)O)C(=O)N[C@@H](CO)C(=O)N[C@@H](CCCCN)C(=O)N[C@@H](CCCNC(=N)N)C(=O)N[C@@H](C)C(=O)N3)NC(=O)[C@H](CCC(=O)O)NC(=O)[C@H](CC(C)C)NC(=O)CNC(=O)[C@H](CCC(=O)O)NC2=O` [compound 238], for which the IC50 is 0.084 µM and 0.23 µM in assay [1]; greater than 5 µM in assay [2]; 4.5 µM and > 5 µM in assay [3]; 3 µM and > 5 µM in assay [4]; 0.0026 µM in assay [5]; 0.626 µM in assay [6]. For the same compound, the IC50 in assay [7] came out at 7.33 µM.
`CCCC[C@H](NC(=O)[C@H](Cc1ccc(O)cc1)NC(=O)[C@H](CCCCN)NC(=O)[C@H](CCCNC(=N)N)NC(=O)[C@@H]1CSSC[C@@H]2NC(=O)[C@H](C)NC(=O)[C@H](CCCNC(=N)N)NC(=O)[C@H](CCCCN)NC(=O)[C@H](CO)NC(=O)[C@H](CC(=O)O)NC(=O)[C@@H]3CSSC[C@H](NC(=O)[C@H](CCC(=O)O)NC(=O)[C@H](CC(C)C)NC(=O)CNC(=O)[C@H](CCC(=O)O)NC(=O)[C@H](CSSC[C@H](NC(=O)[C@@H](N)Cc4ccc(O)cc4)C(=O)N[C@@H](CCC(N)=O)C(=O)N[C@@H](CCCCN)C(=O)N[C@@H](Cc4c[nH]c5ccccc45)C(=O)N[C@@H](CCSC)C(=O)N[C@@H](Cc4c[nH]c5ccccc45)C(=O)N[C@@H]([C@@H](C)O)C(=O)N3)NC2=O)C(=O)N[C@@H](CCCCN)C(=O)N[C@@H](CC(C)C)C(=O)N[C@@H](Cc2c[nH]c3ccccc23)C(=O)N1)C(N)=O` [compound 239]: the IC50 is 0.079 µM in assay [1]; greater than 5 µM in assay [2]; greater than 5 µM in assay [3]; 4 µM in assay [4]; 0.0062 µM in assay [5]; 0.786 µM in assay [6]. Also, the IC50 in assay [7] worked out at 9.77 µM.

Values taken from patent publication US9636418B2 (priority 2013, dated 2017).
